Source: patent US12605464B2, “Cyclohexane lipidoids for nucleic acid transfection and use thereof” (USTAV ORGANICKE CHEMIE A BIOCHEMIE AV CR V.V.I., priority 2021, dated 2026)

Experiments:
HEK293T = experiment: Cellular toxicity of LNPs, CellTiterGlo 2.0 cell viability assay; type: cell-based, human; conditions: 100 μM total lipid components, 24 hours, normalized to non-transfected cells
Description: (§1) A human cell line derived from embryonic kidney cells expressing SV40 large T antigen (HEK293T), and human hepatocyte carcinoma cell line (HepG2) were cultured in 96-well plates (5×10^4 cells in […] of culture medium per well) in Dulbecco's modified medium (DMEM) supplemented with 10% foetal bovine serum (FBS) at 37° C. in 5% CO2. Cells were transfected with 2 μl of LNPs B07-B12 generated in triplicates in Example 20 (the final total concentration of all lipid components in the well was 20 μM) or 10 μl of LNPs (the final total concentration of all lipid components in the well was 100 μM) and subsequently incubated for 24 hours. The cytotoxicity of LNPs was analyzed in a CellTiterGlo 2.0 cell viability assay (Promega, USA). Cell viability was normalized to non-transfected cells (control).

HepG2 = experiment: as above; type: cell-based, human; conditions: HepG2, 100 μM total lipid components, 24 hours, normalized to non-transfected cells
Description: as §1

CCCCCCCCCCCCN(CCCCCCCCCCCC)CCCNC(=O)c1cc(C(=O)NCCCN(CCCCCCCCCCCC)CCCCCCCCCCCC)cc(C(=O)NCCCN(CCCCCCCCCCCC)CCCCCCCCCCCC)c1 [TT3] was tested, and the “Cytotoxicity expressed as cell viability (%)” value (HEK293T) was 27% and the “Cytotoxicity expressed as cell viability (%)” value (HepG2) was 15%.
